Assay results taken from US3983239A, “Hexahydro-γ-carboline derivatives and their salts” (priority 1974, dated 1976).
Entries after “also recorded” stand apart in the source; their conditions may differ. Like-named read-outs stand apart in the source and are kept apart here.

How the values were obtained:
central nervous system = test: Depression of the central nervous system (overall); settings: in vivo
Excerpt: 2. Depression of the central nervous system The compounds of the present invention show the same central nervous system depressing pattern as the existing neuroleptics, such as an inhibiting activity of locomotion, an inhibiting activity of conditioned avoidance response, a cataleptogenic activity, a muscle relaxant activity, an inhibiting activity of self-stimulation, and an anti-methamphetamine activity in terms of locomotor activity.

[1] = system: conditioned avoidance response; test: Inhibiting activity of conditioned avoidance response, rats (Shuttle box method); type: in vivo; settings: Rattus norvegicus, po; rats, p.o.; read-out: ED50 value, inhibiting activity of conditioned avoidance response
[2] = system: apomorphine-induced gnawing; test: Enhancement of apomorphine-induced gnawing; type: in vivo; settings: 0.03-0.7 mg/kg s.c., rats
locomotion [3] = test: Inhibiting activity of locomotion, rats (Open-field method); type: in vivo; settings: Rattus norvegicus, rats, read-out: ED50 value, inhibiting activity of locomotion
Excerpt: 3) Open-field method [C.S. Hall; J. Comp. Physiol. Psychol.

catalepsy = test: Cataleptogenic activity, rats; type: in vivo; settings: Rattus norvegicus, po; rats, p.o.; read-out: ED50 value, cataleptogenic activity
[4] = system: conditioned avoidance response; test: Inhibiting activity of conditioned avoidance response, mice; type: in vivo; settings: Mus musculus, po; mice, p.o.; read-out: ED50 value, inhibiting activity of conditioned avoidance response
Acute toxicity, mice = settings: mouse, in vivo, observed 7 days
Excerpt: (§1) Male and female STD-dd Y mice, weighing 20 to 22 g (each group: 10 mice) and male Wistar HLA rats, weighing 250 to 300 g (each group: 10 to 20 rats) were used.

[5] = system: homovanillic acid (HVA) in brain; test: Effect on homovanillic acid (HVA) in brain; type: in vivo, male Wistar rats; settings: Rattus norvegicus, read-out: dose that remarkably increased the HVA in the brain
Description: 3. Effect on homovanillic acid (HVA for short) in brain
This test was carried out by a modified method of T. Karasawa et al. [Life Sci., Vol. 15, page 1465 (1974)].
To male Wistar rats, weighing 160 to 200 g (each group: 5 rats), was administered 8-methyl-2-[γ-(p-fluorobenzoyl)propyl]-2,3,4,4a,5,9b-hexahydro-1H-pyrido[4,3-b]indole dihydrochloride (Compound A) intraperitoneally or orally. After 90 minutes in case of the intraperitoneal administration, or after 6 hours in case of the oral administration, the test animals were decapitated, and then the HVA in the brain was measured by a fluorometric method.

Acute toxicity, rats = settings: rat, in vivo, male, observed 7 days
Excerpt: as §1

[6] = system: electroencephalogram (EEG); test: Activation of the electroencephalogram (EEG); type: in vivo; settings: 5 mg/kg i.v., gallamine immobilized cats
locomotion [7] = test: Inhibiting activity of locomotion, mice (Animex method); type: in vivo; settings: Mus musculus, po; mice, p.o.; read-out: ED50 value, inhibiting activity of locomotion
muscle relaxant activity = test: Muscle relaxant activity, rats; type: in vivo; settings: Rattus norvegicus, rats, read-out: ED50 value, muscle relaxant activity
self-stimulation = test: Inhibiting activity of self-stimulation, rats; type: in vivo; settings: Rattus norvegicus, po; rats, p.o.; read-out: ED50 value, inhibiting activity of self-stimulation
Excerpt: 8) J. Olds et al; J. Comp. Physiol. Psychol., Vol. 47, page

[8] = system: methamphetamine-induced stereotypy; test: Potentiation of methamphetamine-induced stereotypy; type: in vivo, male Wistar HLA rats; set-up: key: ---: Marked antagonism; --: Moderate antagonism; -: Slight antagonism; 0: No interaction; +: Slight potentiation; ++: Moderate potentiation; +++: Marked potentiation; settings: methamphetamine 2 mg/kg i.p.
Description: 1. Potentiation of methamphetamine-induced stereotypy
This test was carried out by a modified method of R. T. Naylor (Life Sci., Vol. 10, page 909, 1971).
To male Wistar HLA rats, weighing 200 to 250 g (each group: 6 rats), were intraperitoneally administered the compounds to be tested. After 20 minutes, methamphetamine (2 mg/kg) was intraperitoneally administered to the test animals, and then the appeared stereotypy was observed. The effects of the test compounds were evaluated by the intensity of the stereotypy and the termination thereof.

amphetamine = settings: in vivo; cited from earlier work
[9] = cited from earlier work

Structure (SMILES)	ED50 [1]	ED50 (locomotion [3]; ip, i.p.)	ED50 (locomotion [3]; po, p.o.)	ED50 (catalepsy)	ED50 [4]	LD50 at 168 h (Acute toxicity, mice; ip, male)	LD50 at 168 h (Acute toxicity, mice; iv, male)	LD50 at 168 h (Acute toxicity, mice; po, male)	LD50 at 168 h (Acute toxicity, mice; sc, male)	ED50 (locomotion [7])	ED50 (muscle relaxant activity; ip, i.p.)	ED50 (muscle relaxant activity; po, p.o.)	ED50 (self-stimulation)	Stereotypy Intensity ([8]; 1.0 mg/kg i.p.)	Stereotypy Termination ([8]; 1.0 mg/kg i.p.)	Stereotypy Intensity ([8]; 2.0 mg/kg i.p.)	Stereotypy Termination ([8]; 2.0 mg/kg i.p.)	Stereotypy Intensity ([8]; 5.0 mg/kg i.p.)	Stereotypy Termination ([8]; 5.0 mg/kg i.p.)	Stereotypy Intensity ([8]; 10.0 mg/kg i.p.)	other results
Cc1ccc2c(c1)C1CN(CCCC(=O)c3ccc(F)cc3)CCC1N2.Cl.Cl (stereo not drawn) [Compound A, 8-Methyl-2-[γ-(p-fluorobenzoyl)propyl]-2,3,4,4a,5,9b-hexahydro-1H-pyrido[4,3-b]indole dihydrochloride]	23.8 mg/kg	2.8 mg/kg	33.2 mg/kg	34 mg/kg	10 mg/kg	134 mg/kg	59 mg/kg	589 mg/kg	373 mg/kg	9.3 mg/kg	3.16 mg/kg	11.2 mg/kg	61.8 mg/kg	0	0	++	++	+++	+++	+++	central nervous system depressing activities (in words) (central nervous system; dihydrochloride): somewhat inferior to those of chlorpromazine; also recorded: almost comparable to those of clozapine; also recorded: far superior to those of dicarbine; incidence of gnawing after apomorphine [2]: increased the incidence of gnawing; LD50 at 168 h (Acute toxicity, mice; ip, female): 95 mg/kg; LD50 at 168 h (Acute toxicity, mice; po, female): 339 mg/kg; minimal effective dose ([5]; ip, 1.5 h, i.p., 90 minutes after administration): ≥ 5 mg/kg; minimal effective dose ([5]; po, 6 hours after administration): ≥ 13 mg/kg; LD50 at 168 h (Acute toxicity, rats; ip): 146 mg/kg; LD50 at 168 h (Acute toxicity, rats; iv): 51 mg/kg; LD50 at 168 h (Acute toxicity, rats; po): 812 mg/kg; LD50 at 168 h (Acute toxicity, rats; sc): 592 mg/kg; spontaneous EEG, arousal time in the hippocampus [6]: prolongation of arousal time in the hippocampus; spontaneous EEG, cortex [6]: low-voltage high frequency in the cortex; Stereotypy Termination ([8]; 10.0 mg/kg i.p.): +++
Cc1ccc2c(c1)C1CN(C)CCC1N2 (stereo not drawn) [Dicarbine, 2,8-dimethyl-2,3,4,4a,5,9b-hexahydro-1H-pyrido[4,3-b]indole]	> 100 mg/kg	28.7 mg/kg	> 200 mg/kg	> 100 mg/kg	119 mg/kg	153 mg/kg	79 mg/kg	357 mg/kg	237 mg/kg	150 mg/kg	60.3 mg/kg	> 100 mg/kg	> 100 mg/kg	0	0	+	++	++	+++	+++	central nervous system depressing activities (in words) (central nervous system): far weak in comparison with those of the present compounds; activity against amphetamine (amphetamine): antagonism against amphetamine and also an activity of potentiating the amphetamine-induced stereotypy; activity in clinical trials [9]: antipsychotic activity and a thymoleptic activity; Stereotypy Termination ([8]; 10.0 mg/kg i.p.): +++
